Measurements published in ChEMBL document CHEMBL4024791, “Identification of Morpholino-2H-pyrido[3,2-b][1,4]oxazin-3(4H)-ones as Nonsteroidal Mineralocorticoid Antagonists” (J Med Chem, 2018).
pIC50: −log10 of the molar value.

Columns and labels:
Glucocorticoid receptor = target: T1, Glucocorticoid receptor (Homo sapiens, UniProt P04150); test: Displacement of [3H]-dexamethasone from recombinant human GST-tagged GR ligand binding domain after 4 hrs by liquid scintillation counting
T1 sequence (P04150 whole entry): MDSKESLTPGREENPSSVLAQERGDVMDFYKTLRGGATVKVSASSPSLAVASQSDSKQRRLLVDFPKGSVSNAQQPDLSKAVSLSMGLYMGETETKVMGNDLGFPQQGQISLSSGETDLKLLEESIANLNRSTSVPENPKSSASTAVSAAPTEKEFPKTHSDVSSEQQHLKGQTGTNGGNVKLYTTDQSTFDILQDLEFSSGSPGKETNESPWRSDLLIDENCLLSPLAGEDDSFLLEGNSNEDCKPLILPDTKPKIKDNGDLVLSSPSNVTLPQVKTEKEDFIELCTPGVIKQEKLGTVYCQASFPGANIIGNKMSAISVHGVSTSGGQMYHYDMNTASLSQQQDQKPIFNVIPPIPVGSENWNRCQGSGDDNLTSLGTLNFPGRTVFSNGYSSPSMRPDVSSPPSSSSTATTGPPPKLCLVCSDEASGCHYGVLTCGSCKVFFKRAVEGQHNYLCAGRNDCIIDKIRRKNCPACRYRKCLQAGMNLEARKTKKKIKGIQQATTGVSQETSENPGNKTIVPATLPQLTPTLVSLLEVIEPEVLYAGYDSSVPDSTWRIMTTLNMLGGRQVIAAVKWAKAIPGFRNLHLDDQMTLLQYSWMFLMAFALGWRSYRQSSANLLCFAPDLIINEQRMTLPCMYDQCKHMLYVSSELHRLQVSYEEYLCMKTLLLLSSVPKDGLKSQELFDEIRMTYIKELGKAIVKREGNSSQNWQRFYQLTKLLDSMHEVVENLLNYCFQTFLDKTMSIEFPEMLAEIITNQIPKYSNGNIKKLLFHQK

MDR1 (P-gp) = test: Apparent permeability across basolateral to apical side in MDCK cells expressing human MDR1; type: ADME, cell-based, Canis lupus familiaris; conditions: dog
Progesterone receptor [1] = target: T2, Progesterone receptor (Homo sapiens, UniProt P06401); test: Displacement of [3H]-progesterone from recombinant human His-tagged PR-b after 4 hrs by liquid scintillation counting
T2 sequence (P06401 whole entry): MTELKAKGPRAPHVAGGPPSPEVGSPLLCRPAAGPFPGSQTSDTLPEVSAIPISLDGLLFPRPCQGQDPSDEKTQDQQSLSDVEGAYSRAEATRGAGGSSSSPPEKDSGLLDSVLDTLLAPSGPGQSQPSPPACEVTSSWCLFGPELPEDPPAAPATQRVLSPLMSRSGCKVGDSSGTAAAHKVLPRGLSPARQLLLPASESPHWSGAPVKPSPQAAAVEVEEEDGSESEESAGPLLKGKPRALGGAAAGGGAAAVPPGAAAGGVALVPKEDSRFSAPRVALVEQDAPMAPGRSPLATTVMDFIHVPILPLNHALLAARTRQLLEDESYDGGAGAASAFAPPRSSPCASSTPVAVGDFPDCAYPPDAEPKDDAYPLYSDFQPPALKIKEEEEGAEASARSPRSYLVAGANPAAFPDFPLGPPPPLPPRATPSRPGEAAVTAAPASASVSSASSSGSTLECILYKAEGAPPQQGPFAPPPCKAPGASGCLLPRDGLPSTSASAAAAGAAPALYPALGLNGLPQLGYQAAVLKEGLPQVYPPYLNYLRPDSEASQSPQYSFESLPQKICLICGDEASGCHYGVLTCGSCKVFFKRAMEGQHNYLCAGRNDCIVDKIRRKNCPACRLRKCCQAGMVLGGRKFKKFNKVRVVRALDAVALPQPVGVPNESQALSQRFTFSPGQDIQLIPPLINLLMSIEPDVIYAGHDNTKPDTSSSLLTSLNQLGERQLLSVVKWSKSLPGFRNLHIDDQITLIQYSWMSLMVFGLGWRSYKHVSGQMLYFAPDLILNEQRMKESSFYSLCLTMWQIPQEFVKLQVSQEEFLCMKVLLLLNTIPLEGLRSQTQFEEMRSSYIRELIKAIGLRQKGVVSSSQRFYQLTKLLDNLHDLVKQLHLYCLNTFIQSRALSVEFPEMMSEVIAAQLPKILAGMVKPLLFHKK

CYP2D6 = CYP2D6 (Homo sapiens, UniProt P10635); test: Inhibition of CYP2D6 (unknown origin) at 3 uM; type: ADME
CYP2D6, sequence (P10635 whole entry): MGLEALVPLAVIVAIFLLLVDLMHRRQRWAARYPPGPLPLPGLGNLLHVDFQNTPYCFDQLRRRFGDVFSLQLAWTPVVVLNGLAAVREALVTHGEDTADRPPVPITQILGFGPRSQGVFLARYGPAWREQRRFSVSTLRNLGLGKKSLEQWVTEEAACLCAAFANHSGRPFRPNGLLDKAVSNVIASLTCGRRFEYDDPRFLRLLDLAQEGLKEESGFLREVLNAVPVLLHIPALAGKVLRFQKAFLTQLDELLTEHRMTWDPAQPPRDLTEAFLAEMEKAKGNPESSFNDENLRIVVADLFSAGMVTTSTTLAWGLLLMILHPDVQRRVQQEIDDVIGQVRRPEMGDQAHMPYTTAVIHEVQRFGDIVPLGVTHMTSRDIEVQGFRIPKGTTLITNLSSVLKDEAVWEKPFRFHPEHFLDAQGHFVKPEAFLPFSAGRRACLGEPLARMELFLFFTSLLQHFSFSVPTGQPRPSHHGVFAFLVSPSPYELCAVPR

[2] = Oral bioavailability in rat; type: ADME, organism-based; conditions: in vivo
CYP3A4 = CYP3A4 (Homo sapiens, UniProt P08684); test: Inhibition of CYP3A4 (unknown origin) at 3 uM; type: ADME
CYP3A4, sequence (P08684 whole entry): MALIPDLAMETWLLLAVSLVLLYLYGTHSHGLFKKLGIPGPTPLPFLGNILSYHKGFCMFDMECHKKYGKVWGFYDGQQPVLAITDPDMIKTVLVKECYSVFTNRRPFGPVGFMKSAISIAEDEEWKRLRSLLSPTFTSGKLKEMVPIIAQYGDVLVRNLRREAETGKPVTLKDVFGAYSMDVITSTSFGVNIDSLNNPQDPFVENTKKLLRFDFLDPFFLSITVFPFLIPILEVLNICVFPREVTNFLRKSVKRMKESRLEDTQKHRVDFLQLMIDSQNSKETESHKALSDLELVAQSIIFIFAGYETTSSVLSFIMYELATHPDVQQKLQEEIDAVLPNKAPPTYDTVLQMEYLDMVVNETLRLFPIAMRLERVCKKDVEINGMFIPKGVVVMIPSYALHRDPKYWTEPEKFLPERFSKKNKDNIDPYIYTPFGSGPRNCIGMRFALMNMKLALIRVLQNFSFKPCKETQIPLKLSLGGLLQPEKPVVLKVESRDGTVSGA

[3] = Volume of distribution at steady state in dog; type: ADME, Canis lupus familiaris; conditions: in vivo, read-out: Vdss
CYP2C9 = CYP2C9 (Homo sapiens, UniProt P11712); test: Inhibition of CYP2C9 (unknown origin) at 3 uM; type: ADME
CYP2C9, sequence (P11712 whole entry): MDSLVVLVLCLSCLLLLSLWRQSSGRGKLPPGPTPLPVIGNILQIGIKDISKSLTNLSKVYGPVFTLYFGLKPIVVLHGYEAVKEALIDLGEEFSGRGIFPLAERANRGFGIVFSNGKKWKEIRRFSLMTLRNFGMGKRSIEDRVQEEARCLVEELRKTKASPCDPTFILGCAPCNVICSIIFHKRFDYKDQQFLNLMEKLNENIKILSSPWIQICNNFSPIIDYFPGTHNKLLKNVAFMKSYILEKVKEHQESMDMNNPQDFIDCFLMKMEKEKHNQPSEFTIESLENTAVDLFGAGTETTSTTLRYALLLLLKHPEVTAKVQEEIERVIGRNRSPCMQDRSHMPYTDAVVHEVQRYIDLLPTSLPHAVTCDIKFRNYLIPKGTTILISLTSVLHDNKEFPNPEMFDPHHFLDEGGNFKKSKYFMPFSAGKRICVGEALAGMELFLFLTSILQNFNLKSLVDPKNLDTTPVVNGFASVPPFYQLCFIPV

[4] = AUC in Wistar rat at 500 mg/kg, po administered as single dose measured up to 8 hrs post dose by LC-MS analysis; type: ADME, organism-based; design: dose 500 mg/kg, time < 8 hr, route oral; conditions: in vivo
Progesterone receptor [5] = target: T2, Progesterone receptor; test: Antagonist activity at PR (unknown origin) by Gal4-based cellular assay
[6] = Intrinsic clearance in human liver microsomes
[7] = Intrinsic clearance in rat liver microsomes

| pIC50 (Glucocorticoid receptor) | Papp B→A (MDR1 (P-gp)) [×10⁻⁶ cm/s] | pIC50 (Progesterone receptor [1]) | inhibition at 3 µM (CYP2D6) [%] | bioavailability [2] [%] | inhibition at 3 µM (CYP3A4) [%] | Vd [3] [L/kg] | inhibition at 3 µM (CYP2C9) [%] | AUC at 8 h [4] [ng·h/mL] | pIC50 (Progesterone receptor [5]) | microsomal CLint [6] [µL/min/mg] | microsomal CLint [7] [µL/min/mg] | SMILES |
| --- | --- | --- | --- | --- | --- | --- | --- | --- | --- | --- | --- | --- |
| < 5.00 | 24.7 | < 5.00 | < 20 | 4 to 16 | < 20 | 2.37 | < 20 | 13500 | < 5.00 |  |  | C[C@@H]1CN(c2ccc3c(n2)NC(=O)CO3)[C@H](c2ccccc2)CO1 |
|  |  |  | < 10 |  | < 10 |  | < 10 |  | < 5.00 | 18.3 | 223 | O=C1COc2ccc(N3CCOC[C@H]3c3ccccc3)cc2N1 |
